Reference: publication PMC6158189, “A pharmacological probe identifies cystathionine β-synthase as a new negative regulator for ferroptosis” (Cell Death & Disease, 2018)

How the values were obtained:
[1] = tested on: rat hemorrhagic shock model; experiment: hemorrhagic shock rat model; assay type: in vivo; conditions: 3 mg/kg intraperitoneal
Description: Fig. 3 The effect of CH004 on the activity of endogenous hCBS in cells. a CH004 dose-dependently elevates the levels of Hcys in HepG2 and HEK293T cells. HepG2 cells or HEK293T cells were incubated with indicated CH004 or DMSO (control) for 12 h. The amount of total Hcys in cells was measured by ELISA using Axis® Homocysteine EIA kit (IBL, AX51301) (“Materials and Methods” section). […] HepG2 cells were treated with indicated DMSO, CH004 or HA for 8 h before the staining with AzMC probe. The amount of the H2S (blue) was quantified and is shown in (c). Bars, 50 μm. Control (CTR), DMSO group (100%). A representative fluorescence image from three independent experiments is shown. […] The total Hcys of the blood samples collected from the anesthetized rats at the 75 min time point (Materials and Methods) were quantified by ELISA (see above). […]
Figure S10. […] The hemorrhagic shock model was constructed by blood withdrawing (BW) from the carotid artery of anesthetized male Sprague-Dawley rats (280-320 g), and the mean arterial blood pressure (MAP) was monitored by an MP30B-CE pressure transducer (BIOPAC, Santa Barbara, CA, USA). […] Then, 15 min later, CH004 (3 mg/kg), PAG (50 mg/kg) or vehicle (2% DMSO in saline) was intraperitoneally administered to the rats, and the MAP was monitored continuously for another 45 min. MAP was continually recorded during the experiments. […]

[2] = tested on: HepG2 cells; experiment: intracellular total glutathione (Cayman kit); assay type: cell-based, human; conditions: 24 h
Description: Then, the cells from two wells were collected by cell scraper and washed once with PBS. The intracellular total glutathione (GSH) was measured with a commercial glutathione assay kit under the standard protocol (Cayman Chemical, Ann Arbor, USA). […] Supernatant was then collected after centrifugation at 12,000 × g for 15 min at 4 °C before the deproteination by adding an equal volume of 2.5 M metaphosphoric (MPA, Sigma). After the incubation for 5 min, the mixture was centrifuged at 3000 × g for 5 min. The supernatant was collected and added appropriate amount of 4 M triethanolamine (Sigma, 50 μl per 1 ml of the supernatant). The deproteinated and neutralized supernatant was used for the determination of the amount of total GSH by incubating with the assay reagents (from the kit) in a 96-well plate. After an incubation of 25 min, the absorbance at 405 nm was recorded and converted into the amount of GSH with a standard curve.

[3] = target: hCSE (Homo sapiens, UniProt P32929); experiment: purified hCSE enzyme assay; assay type: biochemical; design: human CBS or hCSE full-length (CBS-FL or CSE) was subcloned into pGEX-KG, pcDNA3 or pCDH vector; GST (N); made in house; host or cells: E. coli BL21
Sequence of hCSE (P32929 whole entry): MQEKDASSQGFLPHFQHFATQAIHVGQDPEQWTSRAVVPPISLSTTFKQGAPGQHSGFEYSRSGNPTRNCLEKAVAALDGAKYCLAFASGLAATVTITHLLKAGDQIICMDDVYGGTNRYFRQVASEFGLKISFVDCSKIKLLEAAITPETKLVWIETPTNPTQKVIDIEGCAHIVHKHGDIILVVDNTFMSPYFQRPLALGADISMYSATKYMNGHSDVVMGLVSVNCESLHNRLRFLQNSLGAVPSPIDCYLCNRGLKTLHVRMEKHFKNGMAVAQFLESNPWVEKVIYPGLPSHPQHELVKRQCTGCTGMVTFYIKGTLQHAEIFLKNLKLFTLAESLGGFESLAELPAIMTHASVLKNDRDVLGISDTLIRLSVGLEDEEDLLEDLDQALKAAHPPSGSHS
Description: Fig. 1 CH004 inhibits the activity of hCBS in the in vitro purified enzyme assays under different assay conditions. a A scheme for the cascade enzymatic reactions catalyzed by CBS or CSE. Cth, cystathionine. b, c Inhibitory effects of CH004 on the activity of hCBS-413 (b) or hCSE (c). The enzyme activities were monitored for various concentrations of CH004 under the standard conditions (50 mM Tris-HCl, pH 8.6; “Materials and Methods” section). The result is shown as percentages of the control (DMSO, 100%). The data are shown as means ± SDS (n = 3). d The dose-dependent inhibition of CH004 on the hCBS-413 activity was measured by the tandem-well-based assay under the standard conditions except using 50 mM Hepes buffer (pH 7.4) instead of 50 mM Tris-HCl (pH 8.6). Means ± SDs (n = 3). e The dose-dependent inhibition of CH004 on the CBS activity measured by methylene blue method. […] After 80 min, the assay was stopped by added 10 μL 10% ZnAC and the generated H2S was quantified by N,N-dimethyl-p-phenylenediamine to give an absorbance at 670 nm (for details, see Materials and Methods section; ref. [53]).
The IC50 values of CH004 for hCBS-413, hCBS-413 mutants, hCBS-FL, hCSE or hDDC were determined according to the standard assay conditions otherwise indicated.

Cn1nc(Cc2ccccc2)nc2c(=O)n(C)c(=O)nc1-2 [CH004, 3-benzyl-1,6-dimethylpyrimido[5,4-e][1,2,4]triazine-5,7(1H,6H)-dione]
increase of the level of Hcys in blood ([1]; 75 min time point): ~ 2 fold
effect on mean arterial pressure (MAP) ([1]; indicator for in vivo CSE inhibition): does not affect
intracellular pool of glutathione (GSH) [2]: dose-dependently deplete
Fold selectivity hCSE vs hCBS-413 ([3]; IC50 of hCSE / IC50 of hCBS-413): 29.9 fold
IC50 ([3]; standard conditions, 50 mM Tris-HCl pH 8.6): 29.9 ± 5.6 µM
